Data from patent US10052293B2, “Curcumin infused milk beverage and a process for the preparation thereof” (priority 2016, dated 2018).

How the values were obtained:
[1] = pH of Curcumin dissolved in water; format: physicochemical
Method: The prior art as described in above paragraphs clearly points that Curcumin is unstable in an alkaline solution and loses its golden yellow colour above a pH of 7.5. When pure Curcumin (95%) is dissolved in water, it gives a pH of 6.1. Even at a concentration of 30% solution of Curcumin, prepared by 30 gms of Curcumin in 70 gm hot water, kept in water bath at 55 degrees Celsius for 10 minutes and cooled to 25 degrees Celsius, it has an acidic pH. This Acidic pH of Curcumin is not suitable for making flavoured milk products. Any ingredient having pH less than 6.4 adversely affect milk proteins. The present invention solves this problem by optimizing the exact pH of Curcumin infused milk beverage so that the properties of beverage are preserved and good dispersibility and stability of Curcumin is obtained in the final composition.

[2] = Water solubility of Curcumin; format: physicochemical; conditions: 95% pure Curcumin
Method: The particle size of the Curcumin is about 125 micrometers and 95% of Curcumin can pass through 125 micrometers sieve and rest 5% is larger than 125 micrometers. In the final product, the Curcumin concentration is kept at a low concentration of 0.05% (wt/wt percentage for a batch). The concentration of Curcumin can go up to 0.15%. (wt/wt percentage for a batch) for particular milk beverage products. Thus, in an exemplary situation a 160 ml package of this milk beverage has approximately 80 mg of Curcumin and which can go up to 240 mg as required for ingestion.

pH ([1]; 30% solution: 30 gms Curcumin in 70 gm hot water, 55 degrees Celsius 10 minutes, cooled to 25 degrees Celsius): acidic pH
pH ([1]; pure Curcumin (95%) dissolved in water): 6.1
water solubility [2]: water insoluble
Structure (SMILES): COc1cc(/C=C/C(=O)CC(=O)/C=C/c2ccc(O)c(OC)c2)ccc1O [Curcumin, diferuloylmethane]
